From patent US6313170A, “L-threonate ferrous, as well as pharmaceutical composition and use for improving and treating human anemia thereof” (priority 1997, dated 2001)
Read-outs that look alike come from different tables or passages of the source.

Experiments:
bone marrow cells = details: in vivo
IDA for Children = details: for FEP / RBC / SF / Hb: tablets 7.5 mg Fe + 30 mg vitamin C
Protocol: Subjects: Thirty school-age children aged from 8 to 13 years of Haerbin city of China.
Methods: Blood samples of 10 μl from ear and 5 ml from arm vein for each patient were collected for measurement.
(1) Measurement of RBC: 10 μl blood sample was added to 2 ml diluent and the mixture was shaken completely. One drop of this suspending solution taken by circle glass bar was poured into counting cell. RBC was countered through microscope by laying counting plate on the microstat.
(2) Measurement of HB: The ferric cyanide method was used to determine the HB. 10 μl ear blood sample was added to 5 ml acid diluent to obtain the completely mixed solution by shaking. HB was measured by SH hemoglobinometer manufactured by Huauang Instrument Company of Jianshu Province. Ferric cyanide was purchased from Medical Examination Institute of Shanghai.
(3) Measurement of FEP: To add 0.05 ml whole blood sample anticoagulated by heparin to 3.5 ml of acid anhydrous ethyl alcohol, the mixture was shaken for 5 min and then was centrifugalized with speed of 3000 r/min. The centrifugate of mixture was used for the measurement of fluorometric method (400 nm for exciting optical filter and 600 nm for emitting optical filter).
According to formula given below, the FEP can be calculated. [formula]
Where Fu and PCV represent fluorescence extent and hematocrit, respectively.
To centifugalized 2 ml whole blood sample, the upper solution was used for measurement of SF through the method of radio-immune competition-inhibition program.
Among these 62 IDA patients, 30 children were randomly selected as treatment group of ferrous L-threonate.
Another 30 children with IDA were selected from another prime school with the same diagnosing standards and were established as control group.
Observation time for treatment group and control group was 30 days period and during that period, there were no any intervention on children's activity and food.
(3) Dosages: Each child of treatment group was administered ferrous L-threonate tablets twice a day, one tablet each time. While normal control group was treated with placebo by the same method.

mice testicle cells = details: mouse, in vivo
Blood-loss Anemia Model = experiment: Blood-loss anemia model, rats; details: for Blood hemochrome content / GPC (blood granulophilocyte) / RBC: n=10;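 for all read-outs here: male Wistar rats made anemic by repeated orbital bloodletting, kept on iron-low diet with deionized water while dosed, compared against untreated anemic model and normal-diet control groups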
Protocol: Ferrous gluconate, the positive control drug, yellow-green powder and 11% ferrous content, was purchased from Ganjian Pharmaceutical Company of Jianxi Province. Ferrous fumarate, 6.4% ferrous content, was purchased from the 18th Pharmaceutical Company of Shanghai. All drugs were diluted by distilled water.
7 groups were prepared as hemolytic anemia groups and one group was taken as normal control group supplemented with normal diet and water. The hemolytic anemia model was prepared by subjecting rats to inner canthus bloodletting of right eye through capillary glass tube. The first bloodletting content was 2.0 ml for each rat and in that time the range of hemochrome for rats was from 9.78 to 10.65 g %. Two days later, the second bloodletting (2 ml/rat) was carried out with the hemochrome values of 7.40-7.88 g %. The total bloodletting volume for each rat was 4 ml and was 32.9% in volume of the whole blood circulating the body.
While one hemolytic anemia group and one normal control group were taken as reference groups compared with other groups left. These two groups' rats were killed and the blood parameters were recorded. Other six groups now were randomly divided into three treatment groups of ferrous L-threonate with high, middle and low dosages respectively, two positive drugs control groups of ferrous gluconate and ferrous fumarate and one model group. At the end of 12 days and 18 days experimental periods, 5 and 10 rats of each group were killed correspondingly. During the course of experiment, the variations of hemochrome content were examined with 6 days interval.
While Element ferrous content 8.64 mg/kg as ferrous gluconate or ferrous fumarate was for positive drug control group. The groups for blood-loss anemia were provided iron-low diet and deionized water during the period of the administration of drugs, while the normal animal control group was provided normal diet and deionized water.

[1] = in vivo, po
[2] = rat, in vivo, po, 72 h
Protocol: Its chemical formula is Fe(C4 H7 O5)2.2H2 O, molecular weight:362.
Animals: Male Wistar rats were supplied by Experimental Animal Center, Tumor Institute of Heilongjian Province with body weight of 140 g-180 g. The iron-low diet contains iron 0.9 mg/kg.
50 rats were randomly divided into 5 groups of [19] 10 rats each. On this basis of administration of iron-low diet, each group of rats was administered respectively by gavage according to the dosage below:
High dosage group: Fe, 5 mg/kg, ferrous L-threonate, 32.32 mg/kg;
Middle dosage group: Fe, 2.5 mg/kg, ferrous L-threonate, 16.16 mg/kg;
Low dosage group: Fe, 1.0 mg/kg, ferrous L-threonate, 6.46 mg/kg;
Positive drug control group (ferrous sulfate): Fe, 2.5 mg/kg, ferrous sulfate, 12.43 mg/kg;
Negative drug control group (iron-low diet): Fe, 0.9 mg/kg (measured value).
After the end of 7 days feeding normal diet period, rats were supplemented with iron-low diet prepared according to AOAC formula for another 7 days. The 1-3 groups were treatment groups and supplemented with ferrous L-threonate 32.32 mg/kg (5 mgFe/kg, high dose group), 16.16 mg/kg (2.5 mg Fe/kg, middle dose group) and 6.46 mg/kg (1.0 mg Fe/kg, low dose group), respectively. The forth, positive drug control group, was provided with ferrous sulfate 12.43 mg/kg (2.5 mg Fe/kg). The fifth was model control group and was offered with iron-low diet (0.9 mg Fe/kg). Each groups were arranged to take drug one time by I.G (gavage) method per day and in the same time were supplemented with deionized water.
The test was sustained three days. Each rat's excrement was collected, dried at temperature 80-90° C., weighed and ground into 40-60 meshes. About 0.5 to 0.6 gram sample was taken and a mixture of nitric acid and perchloric acid at a ratio of 4:1 was added therein until completion of digestion. The constant volume is 10 ml. The iron content of excrement was determined by atomic absorption method and the iron absorptive rate for each rat can be calculated by the formula listed below. [formula]

[3] = after treatment (30 days), twice a day
[4] = 8.64 mg Fe/kg (middle dosage / positive controls), 12 days
[5] = 8.64 mg Fe/kg (middle dosage / positive controls), 18 days
[6] = high dosage, 17.28 mg Fe/kg, 12 days
[7] = high dosage, 17.28 mg Fe/kg, 18 days
[8] = low dosage, 4.32 mg Fe/kg, 12 days
[9] = low dosage, 4.32 mg Fe/kg, 18 days

For ferrous L-threonate, the micronucleus test result (bone marrow cells) was “negative”, the “variations of Hb, SF and RBC compared with control group” value (IDA for Children; 30 days of treatment, P<0.01) was “significantly better compared with those of control group (P<0.01)” and the FEP (IDA for Children; after treatment (30 days)) was 445.1 µg/L. The RBC (IDA for Children; [3]) was 401.5 ± 12.4 10^4 /mm^3, the SF (IDA for Children; [3]) was 17.01 ± 1.99 µg/L and the Hb (IDA for Children; before treatment, twice a day) was 104.8 ± 6.1 g/L. The RBC (IDA for Children; before treatment, twice a day) was 387 ± 6.67 10^4 /mm^3, the SF (IDA for Children; before treatment, twice a day) was 12.45 ± 1.50 µg/L and the “number of children with Hb > 120 g/L and ΔHb > 10 g/L” value (IDA for Children; n=30, tablets, 30 days) was 17. The “number of children with no effectiveness” value (IDA for Children; n=30, tablets, 30 days) was 6, the “number of children with ΔHb > 5 g/L” value (IDA for Children; n=30, tablets, 30 days) was 7 and the “share of children with Hb > 120 g/L and ΔHb > 10 g/L” value (IDA for Children; n=30, tablets, 30 days) was 56.7%. The “share of children with no effectiveness” value (IDA for Children; n=30, tablets, 30 days) was 20.0%, the “share of children with ΔHb > 5 g/L” value (IDA for Children; n=30, tablets, 30 days) was 23.3% and the FEP (IDA for Children; printed under after treatment (30 days)) was 120.4 ± 11.2 µg/L. The Hb (IDA for Children; printed under before treatment) was 669.1 ± 72.0 g/L, the “effective rate of improving the case of IDA for children” value (IDA for Children; tablets, 30 days) was 80% and the “variations of Hb, SF and RBC before and after treatment” value (IDA for Children; treatment group, P<0.01) was “understandingly significant difference (P<0.01)”. The “chromosome aberration test result” value (mice testicle cells) was “negative”, the Blood hemochrome content (Blood-loss Anemia Model; 8.64 mg Fe/kg (middle dosage / positive controls), 6 days after treatment) was 8.35 ± 0.21 and the Blood hemochrome content (Blood-loss Anemia Model; 8.64 mg Fe/kg (middle dosage / positive controls), 12 days after treatment) was 10.67 ± 0.37. The “GPC (blood granulophilocyte)” value (Blood-loss Anemia Model; [4]) was 12.58%, the RBC (Blood-loss Anemia Model; [4]) was 4.81e+12 L⁻¹ and the Blood hemochrome content (Blood-loss Anemia Model; 8.64 mg Fe/kg (middle dosage / positive controls), 18 days after treatment) was 12.14 ± 0.27. The “GPC (blood granulophilocyte)” value (Blood-loss Anemia Model; [5]) was 8.44%, the RBC (Blood-loss Anemia Model; [5]) was 5.21e+12 L⁻¹ and the Blood hemochrome content (Blood-loss Anemia Model; 8.64 mg Fe/kg (middle dosage / positive controls), before treatment) was 7.40 ± 0.54. For the same substance, the Blood hemochrome content (Blood-loss Anemia Model; high dosage, 17.28 mg Fe/kg, 6 days after treatment) was 8.70 ± 0.43, the Blood hemochrome content (Blood-loss Anemia Model; high dosage, 17.28 mg Fe/kg, 12 days after treatment) was 11.01 ± 0.34 and the “GPC (blood granulophilocyte)” value (Blood-loss Anemia Model; [6]) was 10.04%. The RBC (Blood-loss Anemia Model; [6]) was 5.67e+12 L⁻¹, the Blood hemochrome content (Blood-loss Anemia Model; high dosage, 17.28 mg Fe/kg, 18 days after treatment) was 12.40 and the “GPC (blood granulophilocyte)” value (Blood-loss Anemia Model; [7]) was 7.84%. It also gave an RBC (Blood-loss Anemia Model; [7]) of 5.84e+12 L⁻¹, a Blood hemochrome content (Blood-loss Anemia Model; high dosage, 17.28 mg Fe/kg, before treatment) of 7.88 ± 0.28 and a Blood hemochrome content (Blood-loss Anemia Model; low dosage, 4.32 mg Fe/kg, 6 days after treatment) of 8.00 ± 0.42. The Blood hemochrome content (Blood-loss Anemia Model; low dosage, 4.32 mg Fe/kg, 12 days after treatment) was 10.20 ± 0.49, the “GPC (blood granulophilocyte)” value (Blood-loss Anemia Model; [8]) was 13.12% and the RBC (Blood-loss Anemia Model; [8]) was 4.242e+12 L⁻¹. The Blood hemochrome content (Blood-loss Anemia Model; low dosage, 4.32 mg Fe/kg, 18 days after treatment) was 11.26 ± 0.79, the “GPC (blood granulophilocyte)” value (Blood-loss Anemia Model; [9]) was 8.91% and the RBC (Blood-loss Anemia Model; [9]) was 4.76e+12 L⁻¹. The Blood hemochrome content (Blood-loss Anemia Model; low dosage, 4.32 mg Fe/kg, before treatment) was 7.61 ± 0.53, the “effect on treating IDA compared with both ferrous gluconate and ferrous fumarate” value (Blood-loss Anemia Model; same ferrous dosage) was “better effects on treating IDA compared with both ferrous gluconate and ferrous fumarate” and the “improvement and cure of anemia compared with ferrous gluconate and ferrous fumarate” value (Blood-loss Anemia Model; summary statement covering hemolytic anemia, blood-loss anemia and nutritional IDA) was “can significantly improve and cure hemolytic anemia, blood-loss anemia and nutritional IDA”. For the same substance, the “embryonic toxicity and aberration” value [1] was “did not produce embryonic toxicity and abberation”, the Absorptivity ([2]; 1 mg/kg) was 59.10 ± 5.01% and the Absorptivity ([2]; 2.5 mg/kg) was 54.90 ± 4.08%. The Absorptivity ([2]; 5 mg/kg) was 42.60 ± 1.79%.
